13 molecules from patent US7432095B2, “Formate dehydrogenase tolerant to halogen compounds and process for producing the same” (Kaneka Corporation, priority 2001, dated 2008) can be followed below.

Read-outs that look alike come from different tables or passages of the source.

One data set concerns the target T1, Candida boidinii FDH (Candida boidinii, UniProt O13437).
T1 sequence (O13437 1-364): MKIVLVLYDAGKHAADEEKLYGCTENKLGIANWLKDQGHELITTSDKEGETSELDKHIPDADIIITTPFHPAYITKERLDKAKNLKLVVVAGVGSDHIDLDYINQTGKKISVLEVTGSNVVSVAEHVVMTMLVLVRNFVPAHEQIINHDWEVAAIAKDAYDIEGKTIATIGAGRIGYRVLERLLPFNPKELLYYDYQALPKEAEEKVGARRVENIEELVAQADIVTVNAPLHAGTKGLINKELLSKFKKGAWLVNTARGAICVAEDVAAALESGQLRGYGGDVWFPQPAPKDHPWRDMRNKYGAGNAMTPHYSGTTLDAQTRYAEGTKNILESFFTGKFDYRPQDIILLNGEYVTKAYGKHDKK
Description: biochemical.

The test system of data set [1] is KNK65MA FDH (formate dehydrogenase). Description: Haloketone tolerance: residual FDH activity of cell-free extract after standing with haloketone. It is filed as biochemical, Thiobacillus sp. KNK65MA. Conditions: 30° C.
Data set [2] concerns FDH derived from the KNK607 strain. The data set is described as above. It is filed as biochemical. The following applies: 30° C.
Data set [3] can be described thus: Formate dehydrogenase activity assay (NADH formation, absorbance at 340 nm) of the purified enzyme. Type of data set: biochemical, Thiobacillus sp. KNK65MA. Conditions: for Specific activity: 0.1 M phosphate buffer pH 7, 500 mM sodium formate, 5 mM NAD. Here is the method: In the present invention, the formate dehydrogenase activity of the polypeptide is assayed by quantitating the increase in absorbance at 340 nm resulting from the production of NADH at 30° C. or 40° C. in a 0.1 M phosphate buffer (pH 7) containing 500 mM sodium formate and 5 mM NAD.
The molecular weight determination is by gel permeation chromatography. The Km value for formate is determined by measuring the activity under the above conditions of activity assay (30° C., NAD 5 mM) while the concentration of sodium formate is varied, and the Km value for NAD is determined under the above conditions of activity assay (30° C., sodium formate 500 mM) while the concentration of NAD is varied. […]
The activity of the formate dehydrogenase obtained was assayed by quantitating the increase in absorbance at 340 nm resulting from formation of NADH in 0.1 M phosphate buffer (pH 7) containing 500 mM sodium formate and 5 mM NAD at 30° C. or 40° C. In this connection, the amount of the enzyme yielding […] of NADH in 1 minute was defined as 1 unit. Protein assay was performed by the method of Lowry using BSA as standard protein. The specific activity of the purified formate dehydrogenase was 7.6 u/mg protein (30° C.) or 13.3 μ/mg protein (40° C.)
The Km values for formate and NAD were determined as follows. Thus, the Km value for formate was determined by measuring the activity with the concentration of sodium formate varied under the above specific activity assay conditions (30° C., NAD 5 mM) and the Km value for NAD was determined by measuring the activity with the concentration of NAD varied under the above specific activity assay conditions (30° C., sodium formate 500 mM). In FIG. 3 and FIG. 4, V represents the reaction velocity of the enzyme, S represents the concentration of the substrate, and the intercept of the abscissa represents −1/Km. […]

Data set [4] deals with ethyl 4-chloroacetoacetate reduction system (NAD regeneration). Put plainly: Coenzyme regeneration in the enzymatic reduction system of ethyl 4-chloroacetoacetate. It is filed as biochemical. The following applies: 6 g ethyl 4-chloroacetoacetate in 60 ml, butyl acetate/water, pH 6.5, 30° C., 3.5 hours, reductase from HB101 (pNTS1M1). The protocol: Escherichia coli HB101 (pFT002) expressing the KNK65MA-derived FDH as acquired in Example 7 and Escherichia coli HB101 (pFA002) expressing KNK607-derived FDH (WO 02/46427) were respectively inoculated into 60 ml of the liquid medium shown in Table 5 sterilized in a 500 ml Sakaguchi flask and shake-cultured at 37° C. for 9 hours. The resulting culture medium was inoculated into 100 ml of the liquid medium shown in Table 5 sterilized in a 500 ml Sakaguchi flask in size of 1% and shake-cultured at 37° C. for 46 hours. The resulting culture medium was centrifugally concentrated 5-fold and sonicated to give an FDH enzyme solution. On the other hand, for use as the reductase enzyme for reducing a 4-haloacetoacetate, the recombinant Escherichia coli HB101 (pNTS1M1)(FERM BP-8059) was inoculated into 100 ml of the medium shown in Table 5 sterilized in a 500 ml Sakaguchi flask, shake-cultured at 37° C. for 23 hours, and concentrated 10-fold and the cells were disrupted. […] After completion of the reaction, the reaction mixture was extracted with butyl acetate and the extract was analyzed. […]
The quantitation of ethyl 4-chloro-3-hydroxybutyrate was carried out by gas chromatography. […]

The mark [5] stands for this setting: Candida boidinii FDH extract, haloketone 20 mM added 1:1, 30° C., 5 hours, untreated extract = 100%, read-out: Residual FDH activity (%).
Setting [6] is: KNK65MA FDH extract, haloketone 20 mM added 1:1, 5 hours, untreated extract = 100%.
[7] abbreviates: KNK607 FDH extract, haloketone 20 mM added 1:1, 5 hours, untreated extract = 100%.
The mark [8] stands for this setting: […], haloketone 20 mM added 1:1, 30° C., 5 hours, […], read-out: Residual FDH activity (%).
Setting [9] is: […], haloketone 20 mM added 1:1, 5 hours, […].
[10] abbreviates: […], haloketone 20 mM added 1:1, 28.5 hours, […].

On to `CC(C)(C)OC(=O)N[C@@H](Cc1ccccc1)C(=O)CCl` [1,1-dimethylethyl [(1S)-3-chloro-2-oxo-1-(phenylmethyl)propyl]carbamate], for which, at Candida boidinii FDH (Candida boidinii FDH extract, haloketone 2 mM added 1:1, 30° C., 5 hours, untreated extract = 100%, read-out: Residual FDH activity (%)), the remaining activity at 2000 µM was determined as 31.3%. Further, the “Residual FDH activity (%)” value is reported as 100.0% in data set [1] (KNK65MA FDH extract, haloketone 2 mM added 1:1, 5 hours, untreated extract = 100%) and 81.6% in data set [2] (KNK607 FDH extract, haloketone 2 mM added 1:1, 5 hours, untreated extract = 100%).

With `O=C(CCl)COC(=O)c1ccccc1` [1-(Benzoyloxy)-3-chloro-2-propanone, 1-(benzoyloxy)-3-chloro-2-propanone], the remaining activity at 10000 µM on Candida boidinii FDH (Candida boidinii FDH extract, haloketone 10 mM added 1:1, 30° C., 5 hours, untreated extract = 100%, read-out: Residual FDH activity (%)) was found to be 4.5%. Also, the “Residual FDH activity (%)” value in data set [1] (KNK65MA FDH extract, haloketone 10 mM added 1:1, 5 hours, untreated extract = 100%) was 100.7%; in data set [2] (KNK607 FDH extract, haloketone 10 mM added 1:1, 5 hours, untreated extract = 100%) it was 1.6%.

On to `O=C(CO)CCl` [1-Chloro-3-hydroxy-2-propanone, 1-chloro-3-hydroxy-2-propanone], for which the remaining activity at 20000 µM at Candida boidinii FDH (setting [5]) was 14.7%. Also, the “Residual FDH activity (%)” value in data set [1] (setting [6]) is recorded as 80.1%; in data set [2] (setting [7]) it was 11.7%.

As to `O=C(CCl)c1cccc(Cl)c1` [2,3′-Dichloroacetophenone, 2,3′-dichloroacetophenone], the remaining activity at 20000 µM on Candida boidinii FDH (setting [8]) was 7.4%. Besides, the “Residual FDH activity (%)” value in data set [1] (setting [9]) is on record as 97.9%; in data set [2] (setting [9]), 27.0%.

On to `O=C(CCl)c1cccnc1` [2-Chloro-1-(3-pyridinyl)ethanone, 2-chloro-1-(3-pyridinyl)ethanone], for which the remaining activity at 20000 µM on Candida boidinii FDH (setting [8]) came out at 1.5%. Also, the “Residual FDH activity (%)” value in data set [1] (setting [9]) was found to be 90.1%; in data set [2] (setting [9]), 6.1%.

For the molecule `O=C(CCl)c1ccccc1` [2-Chloroacetophenone, 2-chloroacetophenone], the remaining activity at 20000 µM at Candida boidinii FDH (28.5 h, read-out: Residual FDH activity (%)) turned out to be 29.4%. For the same molecule, the results for the “Residual FDH activity (%)” value in data set [1] (setting [10]) and in data set [2] (setting [10]) were 100.7% and 100.0%, respectively.

Take `CCOC(=O)C(Cl)C(C)=O` (centres unmarked) [Ethyl2-chloroacetoacetate, ethyl 2-chloroacetoacetate]: the remaining activity at 20000 µM on Candida boidinii FDH (setting [8]) amounted to 5.4%. Further, the “Residual FDH activity (%)” value in data set [1] (setting [9]) came out at 100.0%; in data set [2] (setting [9]), 2.5%.

Regarding `CCOC(=O)CC(=O)CBr` [Ethyl4-bromoacetoacetate, ethyl 4-bromoacetoacetate], at Candida boidinii FDH (setting [5]), the remaining activity at 20000 µM was found to be 0%. For the same molecule, the “Residual FDH activity (%)” value in data set [1] (setting [6]) was determined as 24.1%; in data set [2] (setting [7]), 0.0%.

As for `CCOC(=O)CC(=O)CCl` [Ethyl4-chloroacetoacetate, ethyl 4-chloroacetoacetate], the remaining activity at 20000 µM on Candida boidinii FDH (setting [8]) came out at 14.3%. Besides, the “Residual FDH activity (%)” value in data set [1] (setting [9]) came out at 100.7%; in data set [2] (setting [9]) it was 20.1%.

Regarding `CCOC(=O)CC(=O)CI` [Ethyl4-iodoacetoacetate, ethyl 4-iodoacetoacetate], the remaining activity at 20000 µM at Candida boidinii FDH (setting [5]) came to 0%. For the same molecule, the results for the “Residual FDH activity (%)” value in data set [1] (setting [6]) and in data set [2] (setting [7]) were 12.1% and 0.0%, respectively.

For the molecule `COC(=O)CC(=O)CCl` [Methyl4-chloroacetoacetate, methyl 4-chloroacetoacetate], the remaining activity at 20000 µM at Candida boidinii FDH (setting [8]) turned out to be 14.9%. Also, the “Residual FDH activity (%)” value is 100.0% in data set [1] (setting [9]) and 13.1% in data set [2] (setting [9]).

Take chloroacetone: the “Residual FDH activity (%)” value at Candida boidinii FDH (30° C., 5 hours) is reported as 38.2%; in data set [1] (5 hours), 100.0%; in data set [2] (5 hours), 46.2%.

B1: FDH derived from KNK65MA: Haloketone-tolerant NAD-dependent formate dehydrogenase from Thiobacillus sp. KNK65MA, amino acid sequence SEQ ID NO:1 (protein, listed as Thiobacillus sp.)
chain: MAKILCVLYDDPVDGYPKTYARDDLPKIDHYPGGQTLPTPKAIDFTPGQLLGSVSGELGLRKYLEANGHTFVVTSDKDGPDSVFEKELVDADVVISQPFWPAYLTPERIAKAKNLKLALTAGIGSDHVDLQSAIDRGITVAEVTYCNSISVAEHVVMMILGLVRNYIPSHDWARKGGWNIADCVEHSYDLEGMTVGSVAAGRIGLAVLRRLAPFDVKLHYTDRHRLPEAVEKELGLVWHDTREDMYPHCDVVTLNVPLHPETEHMINDETLKLFKRGAYIVNTARGKLADRDAIVRAIESGQLAGYAGDVWFPQPAPKDHPWRTMKWEGMTPHISGTSLSAQARYAAGTREILECFFEGRPIRDEYLIVQGGALAGTGAHSYSKGNATGGSEEAAKFKKAG
By Km is commonly meant the concentration of substrate that gives half-maximal velocity. Turning to B1, the Km is 1600 µM in data set [3] (30° C., NAD 5 mM, sodium formate varied, read-out: Km value for formate) and 48 µM in data set [3] (30° C., sodium formate 500 mM, NAD varied, read-out: Km value for NAD). The Specific activity in data set [3] (30° C.) is 7.6 u/mg protein; in data set [3] (40° C.), 13.3 μ/mg protein. The “Conversion rate to ethyl 4-chloro-3-hydroxybutyrate” value in data set [4] turned out to be 100%.
